The subject of the data set is BZLF1. Put plainly: EBV reactivation by BZLF1 gRNA transfection (Casilio) in SNU-719 cells stably expressing HA-dCas9-EGFP and 3×FLAG-PUFa-p65HSF1. It counts as cell-based, Epstein-Barr virus (EBV). The protocol: SNU-719 and C666-1 cells stably expressing HA-dCas9-EGFP and 3×FLAG-PUFa-p65HSF1 were cultivated in RPMI-1640 (Sigma) with 10% fetal bovine serum (FBS) (Gibco) and 1% GlutaMAX (Gibco) and cultured in 37° C. incubator with 5% CO2. EBV reactivation experiments were conducted with cells seeded into 6-well plates at 2×10^6 cells per well the day before transfection. 2 micrograms (μg) of control gRNA or individual BZLF1 gRNA (A3) (SEQ ID NO: 8), gRNA (A4) (SEQ ID NO: 9), gRNA (A5) (SEQ ID NO: 10), or gRNA (A6) (SEQ ID NO: 11) gRNAs were transfected into cells with Lipofectamine 2000 (Invitrogen). After transfection, cells were grown for 48 hours and harvested for protein extraction or FACS (FIGS. 4, 5, 7A-7E).
FACS Analysis. Cells were harvested with trypsin and fixed for 15 minutes (mins) with 4% paraformaldehyde. The cells were then centrifuged at 2000×g for 5 mins and resuspended in 3% BSA for 30 mins. The resuspend cells were centrifuged again at 2000×g for 5 mins. […] Samples were analyzed on a FACSCalibur flow cytometer using CellQuest Pro software (BD Bioscience). […]
Quantitative RT-PCR Analysis. […] Power SYBR Green master mix was used for performing real-time quantitative PCR (RT-qPCR). […] The RT-qPCR samples were analyzed with a Roche LC480 PCR instrument. Gene expression levels were calculated by “delta Ct” algorithm and normalized to control samples.

Results on one substance are retold here after patent US20230114264A1, “ACTIVATION OF LYTIC GENES IN CANCER CELLS” (priority 2020, published 2023).

Regarding “BZLF1 gRNA (A5): BZLF1 gRNA spacer sequence SEQ ID NO: 10, GAAACTATGCATGAGCCAC (chemistry not given here)”, under “2 μg gRNA, 48 hours after transfection, protein extraction or FACS”, the “EBV reactivation, induction of BZLF1 (Zta) protein expression” value was “reactivate EBV expression at detectable levels”. Further, the “BZLF1 (ZTa) protein expression by immunostaining” value (FIG. 7E) is recorded as “activated BZLF1 (ZTa) protein expression”.
